Measurements reported in US9295641B2, “Compositions containing alpha-2-adrenergic agonist components” (Allergan, Inc., priority 2000, dated 2016).
Read-outs that look alike come from different tables or passages of the source.

Columns and labels:
[1] = for Solubility of Brimonidine tartrate: fifteen days
Description: The effect of pH on the solubility of brimonidine tartrate in liquid formulations with and without SECs was determined. Particularly, the effect of the presence or absence of various concentrations of an exemplary SEC, sodium carboxymethylcellulose (CMC), on the solubility of brimonidine tartrate at various pH conditions was determined. The various concentrations of CMC tested with Brimonidine tartrate were 0%, 0.056%, 0.17%, 0.5%, 1.5% (w/v), see Table III.
The samples tested also contained isotonic components, buffer components, and stabilized chlorine dioxide (Purite™), Table III. Sodium carboxymethylcellulose, sodium chloride, potassium chloride, calcium chloride dihydrate, and magnesium chloride hexahydrate were USP grade. Boric acid and sodium borate decahydrate were NF grade.
Each sample (1 through 5) was brought to various points within a range of pH values from about 7 to about 10. The vials containing the sample solutions were placed on a laboratory rotator and left to equilibrate for fifteen days at 21° C. The sample solutions were filtered using a 25 mm diameter polysulfone cellulose acetate syringe type filter with 0.45 μm pore size. The filtered solutions were assayed for the amount of brimonidine tartrate in solution.
Conventional HPLC and detection techniques were used to detect and determine the concentrations of soluble brimonidine tartrate. Solubility is plotted against pH for each CMC concentration. The experimental data points were fitted to a modified Henderson-Hasselbalch equation using a nonlinear least squares routine (Deltagraph version 4.0 DeltaPoint, Inc.), See FIG. 1.

[2] = composition including chlorite, equilibrated ten days
Description: Brimonidine tartrate is added to a test tube containing a composition including chlorite. The test tube was allowed to equilibrate for ten days. Samples obtained from the test tube are analyzed by HPLC using a size exclusion column in the presence or absence of a chaotrope, such as urea.

[3] = 23° C.
Description: The pH-solubility profile of brimonidine tartrate in an aqueous formulation (Ophthalmic Solution) was established in the pH range of about 5 to about 8 at 23° C. Table 1. […] Likewise, the temperature may be varied somewhat, for example, solubility curves may be performed at room temperature.
The formulation vehicle was prepared by first dissolving polyvinyl alcohol (PVA) in water. The PVA was added to approximately ⅓ of the required total amount of purified water with constant stirring. The slurry was stirred for 20-30 minutes and then heated to 80-95° C. with constant stirring. The mixture was removed from the heat source within 1 hour after having reached the temperature of 80-90° C. and stirred for an additional 10 minutes to ensure homogeneity (Part I). The other ingredients of the Ophthalmic Solution, except for brimonidine tartrate, were dissolved in a separate container with an additional ⅓ of the required total amount of purified water (Part II). The PVA mixture (Part I) was then quantitatively transferred to Part II using several rinse volumes of purified water. The solution was adjusted to final volume with purified water without pH adjustment.
Brimonidine tartrate was weighed and transferred to a 10 mL test tube containing 5 mL of the formulation vehicle described above. The pH of each sample was then adjusted to a desired value using dilute sodium hydroxide and/or dilute hydrochloric acid. The samples were placed in a rack on a stir plate and stirred at high speed to achieve uniform mixing for 2 days; a partition was placed between the rack and the stir plate to prevent any heat diffusion from the stir plate to the samples.
At the end of two days of stirring, the pH value of each sample was measured, and then approximately 1 mL of each sample was placed in a micro centrifuge tube (polypropylene) and centrifuged at 4,000 rpm for 10 minutes. The supernatant was filtered through a 1 μm filter unit (Whatman, […], PTFE). The first 3-4 drops of the filtrate were discarded; the rest of the filtrate was received and diluted quantitatively with HPLC mobile phase. The dilute sample was then injected directly on the HPLC column (Dupont Zorbax, 250 mm×4.6 mm, 5 μm) for brimonidine tartrate assay in order to quantify the amount of brimonidine tartrate. A control of 0.5% brimonidine tartrate was prepared in the same formulation vehicle at pH 6.3-6.5 and assayed before (untreated) and after (treated) centrifugation and filtration. This was done to evaluate the potential loss of brimonidine tartrate in these two steps of the sample preparation. To ensure reproducibility, the study was repeated on consecutive days.

[4] = physchem

## 5-bromo-6-(2-imidozolin-2-ylamino)quinoxaline tartrate [Brimonidine tartrate]
[1]; 0% CMC, pH 7.11, 21° C.
  Solubility of Brimonidine tartrate: 0.2064 % w/v
[1]; 0% CMC, pH 7.68, 21° C.
  Solubility of Brimonidine tartrate: 0.0786 % w/v
[1]; 0% CMC, pH 8.50, 21° C.
  Solubility of Brimonidine tartrate: 0.0286 % w/v
[1]; 0% CMC, pH 10.09, 21° C.
  Solubility of Brimonidine tartrate: 0.0218 % w/v
[1]; 0.056% CMC, pH 6.67, 21° C.
  Solubility of Brimonidine tartrate: 0.9302 % w/v
[1]; 0.056% CMC, pH 7.11, 21° C.
  Solubility of Brimonidine tartrate: 0.2828 % w/v
[1]; 0.056% CMC, pH 7.77, 21° C.
  Solubility of Brimonidine tartrate: 0.0721 % w/v
[1]; 0.056% CMC, pH 9.93, 21° C.
  Solubility of Brimonidine tartrate: 0.0234 % w/v
[1]; 0.17% CMC, pH 6.68, 21° C.
  Solubility of Brimonidine tartrate: 1.4200 % w/v
[1]; 0.17% CMC, pH 6.93, 21° C.
  Solubility of Brimonidine tartrate: 0.7302 % w/v
[1]; 0.17% CMC, pH 7.81, 21° C.
  Solubility of Brimonidine tartrate: 0.0735 % w/v
[1]; 0.17% CMC, pH 8.55, 21° C.
  Solubility of Brimonidine tartrate: 0.0328 % w/v
[1]; 0.17% CMC, pH 10.05, 21° C.
  Solubility of Brimonidine tartrate: 0.0241 % w/v
[1]; 0.5% CMC, pH 6.67, 21° C.
  Solubility of Brimonidine tartrate: 1.4464 % w/v
[1]; 0.5% CMC, pH 7.10, 21° C.
  Solubility of Brimonidine tartrate: 0.3693 % w/v
[1]; 0.5% CMC, pH 7.56, 21° C.
  Solubility of Brimonidine tartrate: 0.1451 % w/v
[1]; 0.5% CMC, pH 8.46, 21° C.
  Solubility of Brimonidine tartrate: 0.0313 % w/v
[1]; 0.5% CMC, pH 9.94, 21° C.
  Solubility of Brimonidine tartrate: 0.0250 % w/v
[1]; 1.5% CMC, pH 6.68, 21° C.
  Solubility of Brimonidine tartrate: 1.4256 % w/v
[1]; 1.5% CMC, pH 7.35, 21° C.
  Solubility of Brimonidine tartrate: 0.1904 % w/v
[1]; 1.5% CMC, pH 8.10, 21° C.
  Solubility of Brimonidine tartrate: 0.0498 % w/v
[1]; 1.5% CMC, pH 8.67, 21° C.
  Solubility of Brimonidine tartrate: 0.0311 % w/v
[1]; 1.5% CMC, pH 10.11, 21° C.
  Solubility of Brimonidine tartrate: 0.0222 % w/v
[1]; pH 7.5, 0% CMC
  Soluble Brimonidine tartrate (FIG. 1): 1000 ppm
[1]; pH 7.5, 0.056% CMC
  Soluble Brimonidine tartrate (FIG. 1): 1300 ppm
[1]; pH 7.5, 0.17% CMC
  Soluble Brimonidine tartrate (FIG. 1): 1300 ppm
[1]; pH 7.5, 0.5% CMC
  Soluble Brimonidine tartrate (FIG. 1): 1600 ppm
[1]; pH 7.5, 1.5% CMC
  Soluble Brimonidine tartrate (FIG. 1): about 1400 ppm
[2]
  Formation of dimers, by apparent molecular weights of brimonidine in solution: a portion of the brimonidine tartrate monomer units have conjugated to form dimmers
[3]; STUDY 1, pH 5.55, Ophthalmic Solution, theoretical concentration based on sample weight, solution clear
  Solubility: > 16.44^b mgml^−1
[3]; STUDY 1, pH 5.92, Ophthalmic Solution
  Solubility: 13.26 mgml^−1
[3]; STUDY 1, pH 6.14, Ophthalmic Solution
  Solubility: 3.04 mgml^−1
[3]; STUDY 1, pH 6.57, Ophthalmic Solution
  Solubility: 0.755 mgml^−1
[3]; STUDY 1, pH 7.00, Ophthalmic Solution
  Solubility: 0.269 mgml^−1
[3]; STUDY 1, pH 7.45, Ophthalmic Solution
  Solubility: 0.117 mgml^−1
[3]; STUDY 1, pH 7.83, Ophthalmic Solution
  Solubility: 0.062 mgml^−1
[3]; STUDY 2, pH 5.50, Ophthalmic Solution, theoretical concentration based on sample weight, solution clear
  Solubility: > 20.06^b mgml^−1
[3]; STUDY 2, pH 5.92, Ophthalmic Solution
  Solubility: 16.08 mgml^−1
[3]; STUDY 2, pH 6.06, Ophthalmic Solution
  Solubility: 5.01 mgml^−1
[3]; STUDY 2, pH 6.90, Ophthalmic Solution
  Solubility: 0.319 mgml^−1
[3]; STUDY 2, pH 7.40, Ophthalmic Solution
  Solubility: 0.119 mgml^−1
[3]; STUDY 2, pH 7.77, Ophthalmic Solution
  Solubility: 0.063 mgml^−1
[3]; STUDY 2, pH 7.86, Ophthalmic Solution
  Solubility: 0.058 mgml^−1
[3]; STUDY 2, pH 7.88, Ophthalmic Solution
  Solubility: 0.054 mgml^−1

## Brc1c(NC2=NCCN2)ccc2nccnc12 [5-bromo-6-(2-imidozolin-2-ylamino)quinoxaline]
[4]
  pKa: ~7.4
